Measured values: patent US20240034753A1, “THERAPEUTIC PEPTIDES” (COHBAR, INC., priority 2020, published 2024)
Square brackets hold non-standard residues; d marks the D form. Ends that are not written are not given here. Peptide text beside a SMILES is read from it. Nle = CCCC[C@H](N)C(=O)O

How the values were obtained:
[1] = test system: A172 Cells; test: PrestoBlue cell viability assay; format: cell-based; settings: human, 10 μM
Procedure: The effect of the peptides on cell viability can be assessed in cultured cells using suitable assay of viability such as the PrestoBlue® assay (Thermo Fisher Scientific, Waltham, MA). Peptides were initially prepared as 10 mM stock in DMSO and tested at a final concentration of 10 μM (0.1% DMSO). […] PrestoBlue Assay Reagent was purchased from Thermo Fisher Scientific. A172 human brain glioblastoma cell line was purchased from American Type Culture Collection (Manassas, VA). A172 cells were grown in DMEM supplemented with 10% FBS with 100 IU/ml penicillin and 100 μg/ml streptomycin. Cultures were maintained at 37° C. in a humidified atmosphere of 5% CO2/95% air. A172 cells were seeded at 8,000 cells per well on 96-well plates. […] Cell viability was determined using a PrestoBlue Assay reagent […] according to the manufacturer's instructions. Absorption for each sample well on the plate was measured using a Cytation 3 plate reader at 560 nm and 590 nm (BioTek, Winooski, VT). Activity was calculated relative to 0.1% DMSO untreated control. Treatment with 0.1% DMSO alone was used as the cell viability activity control. The relative standard deviation of the DMSO control was <5%.

[2] = test system: SH-SY5Y Neuroblastoma Cells Exposed to Staurosporine; test: ATP levels in cells exposed to staurosporine (CellTiter-Glo); format: cell-based, human; settings: peptide 10 μM plus staurosporine (40 μM), 18-20 hours; <100% cytoprotective, >100% synergistic
Procedure: Peptides were initially prepared as 10 mM stock in DMSO and tested at a final concentration of 10 μM (0.1% DMSO). […] […] CellTiter-Glo® Assay kit was purchased from Promega. SH-SY5Y human neuroblastoma cell line was purchased from American Type Culture Collection (Manassas, VA) and licensed from Memorial Sloan-Kettering Cancer Center (New York, NY). SH-SY5Y cells were grown in DMEM/F12 medium supplemented with 10% FBS with 100 IU/ml penicillin and 100 μg/ml streptomycin. Cultures were maintained at 37° C. in a humidified atmosphere of 5% CO2/95% air. SH-SY5Y cells were seeded at 30,000 cells per well on 96-well plates. […] ATP levels were determined using a CellTiter-Glo Assay kit (Promega) according to the manufacturer's instructions. Luminescence for each sample well on the plate was measured using a Cytation 3 plate reader (BioTek, Winooski, VT). […] A value less than 100% is indicative of a cytoprotective effect, while a value greater than 100% is indicative of a synergistic effect on viability.

[3] = test system: SH-SY5Y Neuroblastoma Cells; test: ATP levels (CellTiter-Glo); format: cell-based, human; settings: peptide 10 μM, 18-20 hours, relative to 0.1% DMSO treated control
Procedure: The effect of the peptides on cellular metabolism can be assessed using an assay of ATP levels in cultured cells such as human neuroblastoma cells. Peptides were initially prepared as 10 mM stock in DMSO and used at a final concentration of 10 μM (0.1% DMSO). […] CellTiter-Glo® Assay kit was purchased from Promega. SH-SY5Y human bone marrow neuroblastoma cell line was purchased from American Type Culture Collection (Manassas, VA) and licensed from Memorial Sloan-Kettering Cancer Center (New York, NY). SH-SY5Y cells were grown in DMEM/F12 medium supplemented with 10% FBS with 100 IU/ml penicillin and 100 μg/ml streptomycin. Cultures were maintained at 37° C. in a humidified atmosphere of 5% CO2/95% air. SH-SY5Y cells were seeded at 30,000 cells per well on 96-well plates. […] ATP levels were determined using a CellTiter-Glo Assay kit (Promega) according to the manufacturer's instructions. Luminescence for each sample well on the plate was measured using a Cytation 3 plate reader (BioTek, Winooski, VT). Activity was calculated relative to 0.1% DMSO treated control. The relative standard deviation of the result for the 0.1% DMSO treated control was <5%.

[4] = test system: 3T3-L1 Mouse Adipocytes; test: Free fatty acid levels in cultured mouse adipocytes stimulated with isoproterenol; format: cell-based; settings: peptide 10 μM, 20-22 hours then 3 hours with 1 nM isoproterenol; relative to isoproterenol treated cells
Procedure: The effect of the peptides on fatty acid metabolism can be assessed using an assay of free fatty acid levels in cultured cells such as mouse adipocytes. Peptides were initially prepared as 10 mM stock in DMSO and used at a final concentration of 10 μM (0.1% DMSO). […] Mouse 3T3-L1 cells purchased from ZenBio were seeded at 3,000 cells per well in 96-well plates in Pre-adipocyte Medium (Zen-Bio) and grown to confluence at 37° C. in a humidified atmosphere of 5% CO2/95% air. Two days after confluence, cells were placed in Adipocyte Differentiation Medium (Zen-Bio) and cultured for three additional days at 37° C. in a humidified atmosphere of 5% CO2/95% air. The culture media was then replaced with Adipocyte Maintenance Medium (Zen-Bio) and the cells maintained for an additional 9-12 days at 37° C. in a humidified atmosphere of 5% CO2/95% air with partial medium replacement every other day. Following 12-15 days of differentiation, test peptides were added at a final concentration of 10 μM in 0.1% DMSO and incubated for 20-22 hours in Adipocyte Maintenance Medium at 37° C. in a humidified atmosphere of 5% CO2/95% air. After 20-22 hours, 1 nM isoproterenol was added to all wells except untreated controls and test peptides were replenished. Insulin at 100 nM was added to control wells. Cells were incubated for 3 hours in Assay Buffer (Zen-Bio) at 37° C. in a humidified atmosphere of 5% CO2/95% air. Free fatty acid concentrations in the media were determined using a Free Fatty Acid Assay kit (Zen-Bio) according to the manufacturer's instructions using a Cytation 3 plate reader at 540 nm (BioTek, Winooski, VT). Absorbance values were corrected for untreated background and expressed relative to isoproterenol treated cells. Treatment with isoproterenol (1 nM) alone was used as the free fatty acid level stimulatory control. The relative standard deviation of the isoproterenol control was <10%. […] Free fatty acid levels for insulin (100 nM) treatment were <5% of the isoproterenol control value.

| Compound | PrestoBlue cell viability, Percent of Control Activity [1] [%] | Percent of ATP Reduction Induced by Control [2] [%] | ATP Levels, % Control [3] [%] | Free Fatty Acid Levels, MEAN %ISO [4] [%] |
| --- | --- | --- | --- | --- |
| MAGVIRGVLVL [compound 8] | 92.0 | 92.6 | 101.1 | 76.9 |
| MLLILTLVLL [compound 2] | 94.4 | 91.6 | 99.9 | 80.7 |
| CC[C@H](C)[C@H](NC(=O)[C@H](CC(C)C)NC(=O)[C@H](C)NC(=O)[C@@H](N)CCSC)C(=O)N[C@@H](CC(C)C)C(=O)N[C@H](C(=O)N[C@@H](CC(C)C)C(=O)N[C@H](C(=O)N[C@@H](CC(C)C)C(=O)N[C@H](C)C(=O)O)C(C)C)[C@@H](C)O [compound 4] (H-MALILTLVL[dA]-OH; N-terminus and C-terminus assumed) | 99.7 | 94.0 | 102.2 | 71.3 |
| RRRMFSCYLY [compound 18] | 100.9 | 96.1 | 108.6 | 58.5 |
| CC[C@H](C)[C@H](NC(=O)[C@@H](NC(=O)[C@H](Cc1c[nH]cn1)NC(=O)[C@H](CCCNC(=N)N)NC(=O)[C@H](CC(=O)O)NC(=O)[C@H](Cc1ccc(O)cc1)NC(=O)[C@H](CC(C)C)NC(=O)[C@H](CC(C)C)NC(=O)[C@@H](NC(=O)[C@@H](N)Cc1c[nH]c2ccccc12)C(C)C)C(C)C)C(=O)NCC(=O)NCC(=O)N[C@@H](CO)C(=O)N[C@@H](CC(C)C)C(=O)N[C@@H](CS)C(=O)N[C@H](C(=O)N[C@H](C(=O)N[C@H](C(=O)N[C@@H](CCC(N)=O)C(=O)N[C@H](C(=O)N[C@@H](CCC(=O)O)C(=O)N[C@H](C)C(=O)N[C@@H](Cc1ccc(O)cc1)C(=O)O)C(C)C)C(C)C)C(C)C)C(C)C [compound 23] (H-WVLLYDRHVIGGSLCVVVQVE[dA]Y-OH; N-terminus and C-terminus assumed) | 97.1 | 69.6 | 105.9 | 77.1 |
| CC[C@H](C)[C@H](NC(=O)[C@@H](NC(=O)[C@H](Cc1c[nH]cn1)NC(=O)[C@H](CCCNC(=N)N)NC(=O)[C@H](CC(=O)O)NC(=O)[C@H](Cc1ccc(O)cc1)NC(=O)[C@H](CC(C)C)NC(=O)[C@H](CC(C)C)NC(=O)[C@@H](NC(=O)[C@@H](N)Cc1c[nH]c2ccccc12)C(C)C)C(C)C)C(=O)NCC(=O)NCC(=O)N[C@@H](CO)C(=O)N[C@@H](CC(C)C)C(=O)N[C@@H](CS)C(=O)N[C@H](C(=O)N[C@@H](CCC(N)=O)C(=O)N[C@H](C(=O)N[C@@H](CCC(N)=O)C(=O)N[C@H](C(=O)N[C@@H](CCC(=O)O)C(=O)N[C@H](C)C(=O)O)C(C)C)C(C)C)C(C)C [compound 25] (H-WVLLYDRHVIGGSLCVQVQVE[dA]-OH; N-terminus and C-terminus assumed) | 96.5 | 82.7 | 106.9 | 91.6 |
| CC[C@H](C)[C@H](NC(=O)[C@H](CC(C)C)NC(=O)[C@H](C)NC(=O)[C@@H](N)CCSC)C(=O)N[C@@H](CC(=O)O)C(=O)N[C@H](C(=O)N[C@@H](CC(C)C)C(=O)N[C@H](C(=O)N[C@@H](CC(C)C)C(=O)N[C@H](C)C(=O)O)C(C)C)[C@@H](C)O [compound 5] (H-MALIDTLVL[dA]-OH; N-terminus and C-terminus assumed) | 97.0 | 106.1 | 97.1 | 95.7 |
| CC[C@H](C)[C@H](NC(=O)[C@@H](NC(=O)[C@H](Cc1c[nH]cn1)NC(=O)[C@H](CCCNC(=N)N)NC(=O)[C@H](CC(=O)O)NC(=O)[C@H](Cc1ccc(O)cc1)NC(=O)[C@H](CC(C)C)NC(=O)[C@H](CC(C)C)NC(=O)[C@@H](NC(=O)[C@@H](N)Cc1c[nH]c2ccccc12)C(C)C)C(C)C)C(=O)NCC(=O)NCC(=O)N[C@@H](CO)C(=O)N[C@@H](CC(C)C)C(=O)N[C@@H](CS)C(=O)N[C@H](C(=O)N[C@H](C(=O)N[C@H](C(=O)N[C@@H](CCC(N)=O)C(=O)N[C@H](C(=O)N[C@@H](CCC(=O)O)C(=O)N[C@H](C)C(=O)O)C(C)C)C(C)C)C(C)C)C(C)C [compound 24] (H-WVLLYDRHVIGGSLCVVVQVE[dA]-OH; N-terminus and C-terminus assumed) | 96.7 | 80.4 | 98.3 | 93.7 |
| MRRRMFSCYLY [compound 17] | 100.6 | 94.2 | 104.6 | 46.1 |
| GWVLLYDRHVIGGSLCVVVQVEAY [compound 22] | 96.5 | 73.1 | 103.5 | 84.7 |
| MRQWILHNGGMSFFC [compound 12] | 100.5 | 98.0 | 101.0 | 67.1 |
| CCCC[C@H](NC(=O)[C@H](CCCNC(=N)N)NC(=O)[C@H](CCCNC(=N)N)NC(=O)[C@@H](N)CCCNC(=N)N)C(=O)N[C@@H](Cc1ccccc1)C(=O)N[C@@H](CO)C(=O)N[C@@H](CS)C(=O)N[C@@H](Cc1ccc(O)cc1)C(=O)N[C@H](C)C(=O)N[C@@H](Cc1ccc(O)cc1)C(=O)O [compound 20] (H-RRR[Nle]FSCY[dA]Y-OH; N-terminus and C-terminus assumed) | 104.7 | 101.4 | 106.9 | 65.6 |
